From patent publication US20240024216A1, “METHODS AND MATERIALS FOR TREATING HAIR LOSS” (The Penn State Research Foundation, priority 2021, published 2024)

Tested on: human foreskin primary keratinocytes
Test: Keratinocyte scratch assay with 4-AP, NGF and NGF-antibody
Assay type: cell-based
Conditions: at 12 hours
Method: Keratinocytes (7×10^4 cells/well) with KC medium were seeded on collagen-I pre-coated 96-well ImageLock microplate for 6 hours. For the drug treatment cells were pretreated with 4-AP prior to coating for 16-18 hours. Next, the wound scratch was created using IncuCyte automated system. After scratches the cells washed with PBS and the respective cells medium was added with individual 1 mM of 4-AP and 200 ng/ml of NGF (MyBioSource, Inc., Catlog No. MBS7114974) in keratinocytes medium and combination of 1 mM of 4-AP & 200 ng/mL NGF with or without 10 μg/ml of NGF-antibody (ThermoFisher Scientific, Catlog No. MA5-32067). The plate was incubated in Incucyte automated imaging system, wound healing and cells migration imaged for every hour until 24 hour and analyzed for percent of closure as described above procedure.

For “NGF: nerve growth factor (NGF), MyBioSource, used at 200 ng/ml in keratinocyte scratch assay”, the scratch closure (56% in control cultures, 1 mM 4-AP, 200 ng/ml NGF) was 75% and the “scratch closure with NGF-neutralizing antibody” value (plus 10 μg/ml NGF-antibody) was 67%.
